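Growth conditions: 96-well plates. Treatment: test compound, 48 hours, 5 concentrations. Analysis: linear interpolation between bracketing concentrations; unreached endpoints set to highest concentration. GI50 = concentration required for 50% inhibition of growth. TGI denotes the concentration required for complete inhibition of growth.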 Where a SMILES comes first, the peptide text is derived from it. [ ]: non-standard residue; d: D form. pGlu = O=C1CC[CH](C(=O)O)N1
How the values were obtained:
Test in all cases: growth of human tumour cells (NCI), 48 h
[1] = test system: MDA-MB-468 breast
[2] = test system: SNB-19 CNS
[3] = test system: COLO 205 colon
[4] = test system: SF-268 CNS
[5] = test system: HCT-116 colon
[6] = test system: SR leukemia
[7] = test system: SK-MEL-2 melanoma
[8] = test system: ACHN renal
[9] = test system: HL-60(TB) leukemia
[10] = test system: PC-3 prostate
[11] = test system: NCI-H460 lung
[12] = test system: SNB-75 CNS
[13] = test system: IGROV1 ovarian
[14] = test system: OVCAR-5 ovarian
[15] = test system: TK-10 renal
[16] = test system: NCI/ADR-RES ovarian
[17] = test system: CAKI-1 renal
[18] = test system: OVCAR-3 ovarian
[19] = test system: EKVX NSCLC
[20] = test system: DU-145 prostate
[21] = test system: OVCAR-4 ovarian
[22] = test system: NCI-H23 lung
[23] = test system: KM12 colon
[24] = test system: RXF 393 renal
[25] = test system: UACC-62 melanoma
[26] = test system: SK-OV-3 ovarian
[27] = test system: U251 CNS
[28] = test system: NCI-H522 lung
[29] = test system: M14 melanoma
[30] = test system: 786-0 renal
[31] = test system: NCI-H226 lung
[32] = test system: HOP-92 NSCLC
[33] = test system: BT-549 breast
[34] = test system: MOLT-4 leukemia
[35] = test system: SK-MEL-28 melanoma
[36] = test system: MALME-3M melanoma
[37] = test system: HOP-62 NSCLC
[38] = test system: K-562 leukemia
[39] = test system: A498 renal
[40] = test system: T-47D breast
[41] = test system: SK-MEL-5 melanoma
[42] = test system: SF-539 CNS
[43] = test system: HT29 colon
[44] = test system: SF-295 CNS
[45] = test system: HCC-2998 colon
[46] = test system: MDA-MB-435
[47] = test system: MCF7 breast
[48] = test system: UACC-257 melanoma
[49] = test system: SN12C renal
[50] = test system: OVCAR-8 ovarian
[51] = test system: RPMI-8226 leukemia
[52] = test system: HCT-15 colon
[53] = test system: A549 NSCLC
[54] = test system: UO-31 renal
[55] = test system: CCRF-CEM leukemia

O=C(CCCCCCNC(=O)c1cnc(N(c2ccccc2)c2ccccc2)nc1)NO
GI50 [1]: 1.22 µM | TGI [1]: 10.2 µM

IP(CCCSc1n(Cc2ccc3ccccc3c2)c(-c2ccccc2)c(-c2ccccc2)[n+]1Cc1ccc2ccccc2c1)(c1ccccc1)(c1ccccc1)c1ccccc1
GI50 [1]: 2.25 µM | TGI [1]: 5.97 µM

O=c1[nH]c(=O)c2cn[nH]c2[nH]1
GI50 [1]: > 100 µM | TGI [1]: > 100 µM

CCOC(=O)Nc1ccc2c(c1)/C(=N\NC(N)=S)c1ccccc1-2
GI50 [1]: 3.46 µM | TGI [1]: 25 µM

ClCc1cccc2c(CCl)cccc12
GI50 [1]: 1.12 µM | TGI [1]: 3.05 µM

CCNC(=O)C1CCCN1C(=O)C(CCCN=C(N)N)NC(=O)C(CC(C)C)NC(=O)C(CC(C)C)NC(=O)C(Cc1ccc(O)cc1)NC(=O)C(CO)NC(=O)C(Cc1c[nH]c2ccccc12)NC(=O)C(Cc1cnc[nH]1)NC(=O)C1CCC(=O)N1 (stereo not drawn) ([pGlu]HWSYLLRP-NHEt; configuration not given here)
GI50 [1]: > 100 µM | TGI [1]: > 100 µM

COc1cc(/C=C\c2cc(OC)c(OC)c(OC)c2)cc(NC(=O)/C=C/c2cc(OC)c(OC)c(OC)c2)c1OC
GI50 [1]: 1.99 µM | TGI [1]: > 100 µM

CCOC(=O)c1c(C)nc2c(c1N)CC(=O)N2Cc1ccc(OC)cc1
GI50 [1]: 27.3 µM | TGI [1]: > 100 µM

O=c1[nH]nnc2c1ncn2C1OC(CO)C(O)C1O (stereo not drawn)
GI50 [1]: 3.36 µM | TGI [1]: > 100 µM

O=C(Oc1cccc(F)c1OC(=O)c1cccc(O)c1)c1cccc(O)c1
GI50 [1]: 18.2 µM | TGI [1]: 55.2 µM

CCN1C(=O)N(CC)C2C1NN=c1s/c(=C\c3cccc(F)c3)c(=O)n12 (stereo not drawn)
GI50 [1]: 0.183 µM | TGI [1]: > 100 µM

CCCCCCCCNc1cc2c3c(c1)CCCN3CCC2
GI50 [1]: 1.54 µM | TGI [1]: 5.31 µM

COc1ccc(C(=S)N2CCN(c3cccc(C)c3)CC2)cc1OC
GI50 [1]: 2.65 µM | TGI [1]: > 100 µM

O=C(Nc1cc(Cl)cc(Cl)c1)Nc1nc2ccc([N+](=O)[O-])cc2s1
GI50 [1]: 1 µM | TGI [1]: 4.22 µM

Cc1cccc(/C=C/c2c(C(=O)/C=C/c3ccccc3)c(C)nc3ccccc23)c1
GI50 [1]: 1.9 µM | TGI [1]: 3.79 µM

O=C(Nc1cccc(-c2nc(-c3ccc(NC(=O)c4cccnc4)cc3Cl)no2)c1)Nc1ccc(NC(=O)C2CC2)c(C(F)(F)F)c1
GI50 [1]: 0.193 µM | TGI [1]: 0.691 µM

C=C1C(=O)O[C@H]2[C@H]1CC/C(CNC(=O)/C=C/c1cc(OC)c(OC)c(OC)c1)=C\CC[C@@]1(C)O[C@@H]21
GI50 [1]: 0.22 µM | TGI [1]: 1.06 µM

N#Cc1ccc(OCc2nc(N)nc(N)c2-c2ccc(Cl)c(Cl)c2)cc1
GI50 [1]: 1.53 µM | TGI [1]: 53.9 µM

COc1ccc2sc(NC(=O)CCCCCCNC(=O)C(O)(O)C(F)(F)F)nc2c1
GI50 [1]: 0.665 µM | TGI [1]: 1.81 µM

C=C1C(=O)O[C@H]2[C@H]1CC/C(COC(=O)CSCSCC(=O)OC/C1=C/CC[C@@]3(C)O[C@H]3[C@H]3OC(=O)C(=C)[C@@H]3CC1)=C\CC[C@@]1(C)O[C@@H]21
GI50 [1]: 1.07 µM | TGI [1]: 2.7 µM

COc1ncnc2c(-c3ccccc3)cn(COCc3ccccc3)c12
GI50 [1]: 1.74 µM | TGI [1]: 6.82 µM

O=C(c1ccccc1)c1ccccc1-c1ccccc1
GI50 [1]: 0.768 µM | TGI [1]: 3.7 µM

COc1cccc(N2CCN(CC(=O)N3CCN(c4nnc(-c5ccc(Cl)cc5)c(-c5ccc(Cl)cc5)n4)CC3)CC2)c1
GI50 [1]: 22.5 µM | TGI [1]: > 100 µM

CCN(Cc1cc(Nc2nc(C)cn3c(-c4cn[nH]c4)cnc23)sn1)C(C)(C)CO
GI50 [1]: < 0.0123 µM | TGI [1]: 0.233 µM

O=C(Cn1c(/C=C/c2ccccc2)nc2ccccc2c1=O)Nc1ccc(Cl)cc1
GI50 [2]: 32.7 µM | TGI [2]: > 100 µM | GI50 [3]: > 100 µM | TGI [3]: > 100 µM | GI50 [4]: > 100 µM | TGI [4]: > 100 µM | GI50 [5]: 46 µM | TGI [5]: > 100 µM | GI50 [6]: > 100 µM | TGI [6]: > 100 µM | GI50 [7]: > 100 µM | TGI [7]: > 100 µM | GI50 [8]: 16 µM | TGI [8]: 49.6 µM | GI50 [9]: > 100 µM | TGI [9]: > 100 µM | GI50 [10]: > 100 µM | TGI [10]: > 100 µM | GI50 [11]: 39.6 µM | TGI [11]: > 100 µM | GI50 [12]: 19.4 µM | TGI [12]: 53.8 µM | GI50 [13]: 70.1 µM | TGI [13]: > 100 µM | GI50 [14]: > 100 µM | TGI [14]: > 100 µM | GI50 [15]: 21.4 µM | TGI [15]: 46 µM | GI50 [16]: 71.4 µM | TGI [16]: > 100 µM | GI50 [17]: 69 µM | TGI [17]: > 100 µM | GI50 [18]: 60.6 µM | TGI [18]: > 100 µM | GI50 [19]: > 100 µM | TGI [19]: > 100 µM | GI50 [20]: > 100 µM | TGI [20]: > 100 µM | GI50 [21]: 9.54 µM | TGI [21]: > 100 µM | GI50 [22]: 34.4 µM | TGI [22]: > 100 µM | GI50 [23]: > 100 µM | TGI [23]: > 100 µM | GI50 [24]: 14.4 µM | TGI [24]: 35.3 µM | GI50 [25]: > 100 µM | TGI [25]: > 100 µM | GI50 [26]: 24.8 µM | TGI [26]: 57.4 µM | GI50 [27]: 13.9 µM | TGI [27]: > 100 µM | GI50 [28]: 83.4 µM | TGI [28]: > 100 µM | GI50 [29]: > 100 µM | TGI [29]: > 100 µM | GI50 [30]: 18.4 µM | TGI [30]: 64.8 µM | GI50 [31]: 23.9 µM | TGI [31]: > 100 µM | GI50 [32]: 11.2 µM | TGI [32]: 32.2 µM | GI50 [33]: > 100 µM | TGI [33]: > 100 µM | GI50 [34]: > 100 µM | TGI [34]: > 100 µM | GI50 [35]: > 100 µM | TGI [35]: > 100 µM | GI50 [36]: 71.3 µM | TGI [36]: > 100 µM | GI50 [37]: 24.7 µM | TGI [37]: 80.1 µM | GI50 [38]: > 100 µM | TGI [38]: > 100 µM | GI50 [39]: 22.2 µM | TGI [39]: 40.9 µM | GI50 [40]: 15.8 µM | TGI [40]: 47.5 µM | GI50 [41]: > 100 µM | TGI [41]: > 100 µM | GI50 [42]: 30.9 µM | TGI [42]: > 100 µM | GI50 [43]: > 100 µM | TGI [43]: > 100 µM | GI50 [44]: 26.8 µM | TGI [44]: > 100 µM | GI50 [45]: > 100 µM | TGI [45]: > 100 µM | GI50 [46]: > 100 µM | TGI [46]: > 100 µM | GI50 [47]: > 100 µM | TGI [47]: > 100 µM | GI50 [48]: > 100 µM | TGI [48]: > 100 µM | GI50 [49]: 16.7 µM | TGI [49]: > 100 µM | GI50 [50]: > 100 µM | TGI [50]: > 100 µM | GI50 [1]: 29.2 µM | TGI [1]: > 100 µM | GI50 [51]: > 100 µM | TGI [51]: > 100 µM | GI50 [52]: > 100 µM | TGI [52]: > 100 µM | GI50 [53]: 87.2 µM | TGI [53]: > 100 µM | GI50 [54]: 21.3 µM | TGI [54]: 64.8 µM | GI50 [55]: > 100 µM | TGI [55]: > 100 µM

COc1ccc(-c2nn(-c3cccc(Cl)c3)cc2-c2cc(-c3cccs3)[nH]c(=S)n2)cc1
GI50 [1]: 2.57 µM | TGI [1]: 9.91 µM

C[C@]12CC[C@@H]3c4ccc(OC(=O)N(CCCl)CCCl)cc4CC[C@H]3[C@@H]1CC[C@@H]2O
GI50 [1]: 1.69 µM | TGI [1]: 4.21 µM

Clc1nc(Cl)c2ncn(CC3(Cn4cnc5c(Cl)nc(Cl)nc54)COC3)c2n1
GI50 [1]: 0.192 µM | TGI [1]: 0.408 µM

CCN(Cc1ccc(Cl)cc1)c1ccc(CO)c(Cl)c1
GI50 [1]: 0.02 µM | TGI [1]: 0.0626 µM

CN(CCO)CC[C@H](CSc1ccccc1)Nc1ccc(S(=O)(=O)NC(=O)c2ccc(N3CCC([C@@H](O)c4ccccc4-c4ccc(Cl)cc4)CC3)cc2)cc1S(=O)(=O)C(F)(F)F
GI50 [1]: 1.87 µM | TGI [1]: 5.19 µM

C/C=C(\C)C(=O)NC1=CC[C@@]2(C)C(=CCC3C2CC[C@@]2(C)C3CC[C@@H]2C(C)N(C)C)C1=O (stereo partly drawn)
GI50 [1]: 2 µM | TGI [1]: 9.56 µM

Fc1ccc(C2CC(c3cccc(Nc4ccncc4)c3)=NN2c2ccc(Cl)cc2)cc1 (stereo not drawn)
GI50 [1]: 1.42 µM | TGI [1]: 2.93 µM

C[C@H](NC(=O)[C@@H](C)N)[C@H](Oc1ccc2c(cnn2-c2ccc(F)cc2)c1)c1ccc2c(c1)OCCO2
GI50 [1]: 2.12 µM | TGI [1]: 4.05 µM

C=CCN=c1sc2c(n1NC(=O)c1cc3ccc1CCc1ccc(cc1)CC3)C(=O)c1ccccc1C2=O
GI50 [1]: 2.28 µM | TGI [1]: 5.72 µM

Oc1c(-c2nnc(-c3ccccc3Cl)o2)sc2nnc(-c3ccccc3)c(-c3ccccc3)c12
GI50 [1]: 5.11 µM | TGI [1]: 27.8 µM
